Reference: ChEMBL document CHEMBL1201862, “PubChem BioAssay data set” (2004)
Calls of active or inactive are those of the source.

Experiments:
[1] = viability loss in HEK293T cells – cell-based, cherry-picks, cytotoxicity control for HIV Vif inhibitor project, dose response (AID 652208); type: functional
[2] = target: T1, Corticotropin-releasing factor receptor 2/Corticotropin-releasing factor-binding protein (Homo sapiens, UniProt P24387+Q13324); experiment: activators of CRF receptor 2 with binding protein – uHTS hits, confirmation (AID 602473); type: functional; details: read-out: EC50_Mean
T1 sequence (Q13324 whole entry): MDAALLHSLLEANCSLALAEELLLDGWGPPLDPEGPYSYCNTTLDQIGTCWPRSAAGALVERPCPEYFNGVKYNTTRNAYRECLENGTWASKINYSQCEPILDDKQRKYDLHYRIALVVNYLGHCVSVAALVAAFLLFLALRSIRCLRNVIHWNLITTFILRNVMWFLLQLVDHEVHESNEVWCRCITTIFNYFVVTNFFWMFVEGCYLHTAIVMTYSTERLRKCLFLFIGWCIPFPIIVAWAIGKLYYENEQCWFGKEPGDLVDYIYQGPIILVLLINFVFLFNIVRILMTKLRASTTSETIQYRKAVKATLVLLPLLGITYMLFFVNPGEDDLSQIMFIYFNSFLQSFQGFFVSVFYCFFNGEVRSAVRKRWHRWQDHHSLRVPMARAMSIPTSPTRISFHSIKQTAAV
T1 sequence (P24387 whole entry): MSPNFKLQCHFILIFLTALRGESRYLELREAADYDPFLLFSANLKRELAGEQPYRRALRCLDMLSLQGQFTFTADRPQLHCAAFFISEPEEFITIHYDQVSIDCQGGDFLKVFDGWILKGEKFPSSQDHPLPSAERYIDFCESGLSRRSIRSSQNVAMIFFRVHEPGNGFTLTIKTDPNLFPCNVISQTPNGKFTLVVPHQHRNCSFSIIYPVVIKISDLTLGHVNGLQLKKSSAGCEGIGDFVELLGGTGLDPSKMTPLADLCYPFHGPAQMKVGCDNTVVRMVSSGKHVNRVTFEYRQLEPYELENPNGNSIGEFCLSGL

Kallikrein-7 = Kallikrein-7 (Homo sapiens, UniProt P49862); experiment: Fluorescence Intensity-based biochemical primary high throughput dose response assay to identify activators of kallikrein-7 (K7) zymogen.
Sequence of Kallikrein-7 (P49862 whole entry): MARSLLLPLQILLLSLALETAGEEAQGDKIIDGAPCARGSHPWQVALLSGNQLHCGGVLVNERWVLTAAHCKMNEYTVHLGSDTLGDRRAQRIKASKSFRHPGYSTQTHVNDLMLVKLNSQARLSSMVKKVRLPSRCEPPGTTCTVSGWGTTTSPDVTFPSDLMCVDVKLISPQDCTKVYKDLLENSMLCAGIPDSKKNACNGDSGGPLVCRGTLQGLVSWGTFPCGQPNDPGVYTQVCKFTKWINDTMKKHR

[3] = system: Streptococcus sp. 'group A'; experiment: Streptococcus pyogenes SK(-)GAS viability under kanamycin – luminescence, BacTiterGlo, confirmation, counter-screen for streptokinase expression inhibitor project, dose response (AID 1900); type: functional, organism-based
[4] = target: T2, Sentrin-specific protease 1 (Homo sapiens, UniProt Q9P0U3); experiment: Dose response confirmation of small molecule inhibitors of the catalytic domain of the SUMO protease, SENP1 in a FRET assay.; type: functional; details: read-out: IC50_Mean
T2 sequence (Q9P0U3 whole entry): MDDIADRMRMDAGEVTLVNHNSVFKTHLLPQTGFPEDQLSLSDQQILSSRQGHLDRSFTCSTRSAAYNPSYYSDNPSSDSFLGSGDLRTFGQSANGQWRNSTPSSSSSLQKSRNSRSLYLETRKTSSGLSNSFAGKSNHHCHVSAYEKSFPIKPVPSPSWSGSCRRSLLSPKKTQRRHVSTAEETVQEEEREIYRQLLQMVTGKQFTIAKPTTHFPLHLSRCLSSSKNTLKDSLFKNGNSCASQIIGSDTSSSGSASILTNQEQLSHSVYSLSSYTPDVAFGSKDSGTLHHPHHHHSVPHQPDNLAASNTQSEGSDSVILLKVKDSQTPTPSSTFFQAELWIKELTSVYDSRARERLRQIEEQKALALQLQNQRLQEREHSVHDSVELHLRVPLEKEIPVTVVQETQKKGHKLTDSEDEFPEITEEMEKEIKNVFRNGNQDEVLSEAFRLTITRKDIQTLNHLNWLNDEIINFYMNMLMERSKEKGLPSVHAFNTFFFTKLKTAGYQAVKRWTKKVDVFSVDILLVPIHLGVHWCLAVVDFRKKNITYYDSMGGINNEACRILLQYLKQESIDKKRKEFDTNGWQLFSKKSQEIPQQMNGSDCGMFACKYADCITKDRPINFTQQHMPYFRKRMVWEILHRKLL

Streptococcus = experiment: GAS UMAA2166 growth inhibition – luminescence, BacTiterGlo, counter-screen for streptokinase expression inhibitor project, dose response (AID 1915); type: functional, organism-based;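 note: potency for reduction of bacterial viability or growth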
Streptokinase A = target: T3, Streptokinase A (Streptococcus pyogenes serotype M1, UniProt P10520); experiment: viability-normalized secreted streptokinase activity reduction – plasminogen activation absorbance, OD405, dose response (AID 1914); type: functional, Streptococcus pyogenes M1 GAS;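 note: secreted streptokinase activity via plasminogen activation per viability signal from cell pellet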
T3 sequence (P10520 whole entry): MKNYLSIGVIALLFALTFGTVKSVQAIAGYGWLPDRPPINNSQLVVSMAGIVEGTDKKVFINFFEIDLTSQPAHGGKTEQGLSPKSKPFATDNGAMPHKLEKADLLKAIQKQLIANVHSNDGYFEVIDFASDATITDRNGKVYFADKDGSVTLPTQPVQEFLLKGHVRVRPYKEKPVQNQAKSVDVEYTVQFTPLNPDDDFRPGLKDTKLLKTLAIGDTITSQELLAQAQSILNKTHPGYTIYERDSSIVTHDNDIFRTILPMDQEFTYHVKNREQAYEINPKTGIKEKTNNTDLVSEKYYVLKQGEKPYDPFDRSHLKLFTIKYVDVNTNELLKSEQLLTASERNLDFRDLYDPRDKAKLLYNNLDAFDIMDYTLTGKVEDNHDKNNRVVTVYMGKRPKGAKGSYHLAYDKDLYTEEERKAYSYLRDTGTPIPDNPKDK

[5] = target: T2, Sentrin-specific protease 1; experiment: SENP1 catalytic domain blockers, concentration series – biochemical, kinetic FRET, dose response (AID 651697); type: functional; details: read-out: IC50_Mean
[6] = Trypanosoma cruzi growth suppression in host cells – NIH3T3 host cells, beta-gal luminescence, confirmation (AID 2044); type: functional, cell-based;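 note: intracellular parasites grown in NIH/3T3 mouse fibroblasts as host cells; luminescent beta-galactosidase reporter signal from transgenic T. cruzi replicating inside host cells; inhibitors lower the luminescence signal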
[7] = blockers of HIV-1 envelope-mediated cell-cell fusion – cherry-pick, dose response (AID 652057); type: functional, cell-based
[8] = HIV-1 AD8 envelope cell-cell fusion blockers – cherry-pick, dose response (AID 652062); type: functional, cell-based;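 note: luciferase signal from cell-cell fusion driven by HIV-1 clade B AD8 Env; potency is for inhibitors of fusion seen as a drop in luminescence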
INS1 = experiment: INS-1E survival protection against cytokine death – cell-based, luminescence, retest, dose response (AID 449756); type: functional; details: Rattus norvegicus, INS1;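 note: cell death triggered by IL-1 beta plus TNF-alpha plus IFN-gamma mixture; protective hits raise ATP signal compared with cytokine alone wells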
[9] = viability loss in CEM21 cells – cell-based, CellTiter-Glo luminescence, cherry-picked, cytotoxicity control for viral fusion inhibitor project, dose response (AID 652042); type: functional;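 note: potency for signal decrease meaning cytotoxicity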
[10] = microbe, parasite or virus in culture; type: functional; details: Mycobacterium tuberculosis
[11] = NIH3T3 cell viability loss – ATP luminescence, mouse fibroblasts, counter-screen, dose response (AID 2010); type: functional, cell-based;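 note: cells exposed to compound for about 90 hours before reading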
[12] = off-target signal loss in HeLa-CEM21 co-culture – HeLa F-luc CTL cells, cherry-picked, counter-screen for HIV-1 Env fusion inhibitor project, dose response (AID 652040); type: functional, cell-based;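 note: potency for signal decrease marking cytotoxic or nonspecific inhibition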
[13] = blockers of HIV-1 ZM109 envelope-driven cell-cell fusion – HeLa effector, CEM target cells, luciferase, cherry-pick, dose response (AID 652058); type: functional, cell-based;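 note: luciferase signal from HIV-1 Env mediated cell-cell fusion of effector and target cells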
[14] = acridine orange displacement from DNA – biochemical, fluorescence polarization, cherry-pick, artefact control for RAD54 inhibitor project, dose response (AID 651673); type: functional
[15] = target: T4, Small ubiquitin-related modifier 1 (Homo sapiens, UniProt P63165); experiment: SUMO1 protein interaction blockers, potency – biochemical, fluorescence polarization, uHTS hits, dose response (AID 624382); type: functional; details: read-out: IC50_Mean
T4 sequence (P63165 whole entry): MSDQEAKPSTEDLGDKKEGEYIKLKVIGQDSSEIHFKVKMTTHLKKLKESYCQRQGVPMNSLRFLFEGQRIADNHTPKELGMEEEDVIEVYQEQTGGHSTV

[16] = target: T4, Small ubiquitin-related modifier 1; experiment: SUMO1 protein-protein binding blockers, potency – biochemical, FRET, dose response (AID 624383); type: functional; details: read-out: IC50_Mean
[17] = target: Photoreceptor-specific nuclear receptor (Homo sapiens, UniProt Q9Y5X4); type: functional, cell-based;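 note: CHO-S cells with Gal4-NCOR and VP16-NR2E3 two-hybrid luciferase reporter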
Sequence of Photoreceptor-specific nuclear receptor (Q9Y5X4 whole entry, the tested form may be a part): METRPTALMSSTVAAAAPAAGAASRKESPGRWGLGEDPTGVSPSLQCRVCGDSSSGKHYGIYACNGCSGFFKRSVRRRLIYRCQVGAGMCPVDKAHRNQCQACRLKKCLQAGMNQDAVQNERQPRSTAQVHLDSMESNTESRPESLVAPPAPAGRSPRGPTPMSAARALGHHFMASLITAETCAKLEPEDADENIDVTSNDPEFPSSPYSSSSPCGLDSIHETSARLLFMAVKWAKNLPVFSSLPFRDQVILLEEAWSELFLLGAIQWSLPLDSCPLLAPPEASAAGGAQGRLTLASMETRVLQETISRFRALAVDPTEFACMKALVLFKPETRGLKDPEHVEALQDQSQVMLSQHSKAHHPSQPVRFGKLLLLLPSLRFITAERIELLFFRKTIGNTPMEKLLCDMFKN

Vero [18] = experiment: cells; type: functional; details: Chlorocebus sabaeus
Vero [19] = experiment: viability loss in Vero cells – cell-based, plate reader, cherry-pick samples, cytotoxicity control, dose response (AID 687020); type: functional; details: Chlorocebus sabaeus
[20] = general mammalian cell viability loss – inhibitor set, cherry-pick, set 2, cytotoxicity control for miR-122 modulator project, dose response (AID 720697); type: functional, cell-based

With `Cc1ccc(CNC(=O)c2cccc3c2C(=O)c2ccc(N4CCC(C)CC4)cc2S3(=O)=O)cc1` the AC50 [1] was 39.3 µM (active) and the EC50 [2] was 5.51 µM (active).
For `Cc1nn(-c2ccccc2)c2c1cc1c(=O)n(C)c(=O)nc-1n2-c1ccccc1F`, the EC50 (Kallikrein-7) was 52.9 µM (inactive).
For `COC(=O)c1c(NC(=O)c2ccccc2)sc(C(=O)c2ccccc2)c1C`, the EC50 [3] was 6.12 µM (active), the IC50 [4] was 21.3 µM (inactive) and the EC50 (Streptococcus) was 18.4 µM (active). For the same molecule, the EC50 (Streptokinase A) was > 150 µM (not active) and the IC50 [5] was 15.6 µM (active).
In the case of `S=C(NCc1ccc(Cl)cc1)NC12CC3CC(CC(C3)C1)C2`, the EC50 [6] is reported as 3.41 µM (active), the AC50 [7] is reported as 4.88 µM (active) and the AC50 [8] is reported as 8.99 µM (active). For the same molecule, the AC50 (INS1) was 5.6 µM (active), the AC50 [9] was 31.8 µM (active) and the CC50 [10] was 18.8 µM (active). The EC50 [11] was > 60 µM (not active), the AC50 [12] was 13.1 µM (active) and the AC50 [13] was 6.05 µM (active).
In the case of `Cc1nc2oc3c(O)ncnc3c2c2c1COC(C)(C)C2`, the AC50 [14] is reported as 67.1 µM (active).
In the case of `CCCCCCC(=O)Nc1nc(C)c(-c2csc(Nc3cc(Cl)ccc3C)n2)s1`, the IC50 [15] is reported as > 66.6 µM (inactive) and the IC50 [16] is reported as 10.1 µM (active).
For `N#Cc1c(N2CCOCC2)nc(N)c2c(N)nc3c(c12)CC(CCl)O3` (stereo unspecified), the EC50 (Kallikrein-7) was > 69.5 µM (inactive).
In the case of `CN(C)c1ncnc2c1ccn2C1OC(CO)C(O)C1O` (stereo unspecified), the IC50 [17] is reported as 1.45 µM (active), the AC50 [7] is reported as 4.51 µM (active) and the AC50 [8] is reported as 1.89 µM (active). The CC50 (Vero [18]) was > 25 µM (active), the AC50 [9] was 1.39 µM (active) and the AC50 [12] was 1.9 µM (active). The AC50 [13] was 3.41 µM (active).
In the case of `COCCNC(=O)c1cc2cc3ccc(OC)cc3nc2o1`, the AC50 (Vero [19]) is reported as 27.7 µM (active).
With `CC(C)C(=O)Nc1ccc2c(c1)C(=O)N(C)[C@H]1CC[C@H](CC(=O)O)O[C@H]1CO2` the AC50 [20] was 0.437 µM (active).
In the case of `C[C@H](CO)N1C[C@H](C)[C@H](CN(C)C(=O)C2CCC2)Oc2cc(-c3ccc(C(=O)N(C)C)cc3)ccc2S1(=O)=O`, the AC50 [20] is reported as 9.74 µM (active).
